What was measured:
[1] = Bundle tensile strength of permanently waved and fixed hair
Method: The amount of permanent waving liquid was calculated from the ratio 1:1.2 (1 g of hair to 1.2 g of permanent waving liquid). The amount of 1.2 ml to 1 g of hair corresponds to an amount of 50 ml of permanent waving solution per head with an average weight of […] of hair per head. This solution was allowed to act for 15 minutes; the temperature of the reducing agent acting was 50° C. The permanent waving agent, based on thioglycolic acid, was rinsed out well with water (2 to 3 minutes). Subsequently, the hair strands were in each case moistened intensively with the respective ready-for-use fixative. This procedure was repeated three or six times, in that the strands, after each treatment, was suspended for six hours in the water bath.
The tensile strength of the bundles, which are a measure of the preservation of the hair, were determined using individual strands of hair.

[2] = cited from earlier work
[3] = Permanent waving application test: reductive treatment, then fixing with the ready-for-use fixative; conditions: hair reduced with 10% thioglycolic acid solution pH 8.2, then fixed
Method: In these examples, the hair was treated reductively in each case in the following manner:
The solution was allowed to act for 15 minutes. The reducing agent acted at a temperature of 50° C.
At the end of the period of action, the excess permanent waving solution was rinsed out with water and the fixing solution was then applied with a sponge. The fixing solution is prepared 2 minutes before use by dissolving component 1 in component 2.
The hair is fixed for 30 minutes at 22° C. and subsequently rinsed with water. The curlers are then removed and the hair is rinsed with lukewarm water. Finally, the hair is styled and then dried.

| SMILES | increase in hair damage on repeated use (bundle tensile strength after three vs six treatments) [1] | stability in aqueous solution [2] | brightening of the hair (shift in color) [3] |
| --- | --- | --- | --- |
| O=C1O[C@H]([C@@H](O)CO)C(=O)C1=O [Dehydroascorbic Acid, dehydroascorbic acid] | no increase in hair damage | unstable and decomposes within a few hours | – |
| OO [Peroxide, hydrogen peroxide] | – | – | clearly detectable shift in coloring the direction of red and yellow |

Reference: patent US6506373B1, “Agent and method for permanent waving” (Wella Aktiengesellschaft, priority 1998, dated 2003)
